Results from patent US12673036B2, “Method of using L-triiodothyronine (T3) for the treatment of tissue hypoxia and sepsis” (UNI-PHARMA KLEON TSETIS PHARMACEUTICAL LABORATORIES S.A., priority 2020, dated 2026).
Like-named read-outs stand apart in the source and are kept apart here.

Legend:
[1] = system: patients with non-ST-segment elevation myocardial infarction; details: patients with NSTEMI; cited from earlier work
[2] = system: xenograft models (non-small cell lung, multiple myeloma, breast, glioblastoma, and ovary); details: cited from earlier work
p38 MAPK [3] = experiment: p38 MAPK activation in isolated rat heart after 4 hours hypoxic perfusion; details: after 4 hours of prolonged hypoxic perfusion, p<0.05
Source text: (§1) The isolated rat heart model was used to simulate non-ischemic conditions of tissue hypoxia ex vivo. In this study, rat hearts were only perfused with oxygenated Krebs buffer containing electrolytes and glucose under normothermia. Despite normal perfusion, the organ gradually develops significant dysfunction over hours due to the absence of erythrocytes and hemoglobin that create hypoxic conditions. […] It should be noted that such an increase in LVEDP may lead to pulmonary edema in vivo. Furthermore, the force of contraction was reduced as evident by a 25% decrease in left ventricular developed pressure (LVDP) in Control hearts (FIG. 2).

male C57BL/6N mice = experiment: Cecal ligation and puncture (CLP) sepsis model; format: in vivo
Protocol: The effect of T3 administration in high dosages in the treatment of tissue hypoxia due to microvascular dysfunction occurring in the myocardium, kidneys and liver is evaluated in a sepsis experimental model using male C57BL/6N mice of 10-12 weeks age. The animal studies were carried out in compliance with all necessary regulations in force.
The simulation of the clinical conditions during sepsis leading to tissue hypoxia and microvascular dysfunction is achieved following the most widely used clinical model of cecal ligation and puncture (CLP). In this experimental model, ligation distal to the ileocecal valve (25% of total cecum length) and perforation by a single 21 G puncture is performed under sevoflurane anesthesia causing leakage of fecal contents into the peritoneum, with subsequent polymicrobial bacteremia and sepsis. The perforation of the cecum allows the release of fecal material into the peritoneal cavity to generate an exacerbated immune response induced by polymicrobial infection. In this model, sepsis causes systemic activation of the inflammatory response, microvascular dysfunction, tissue hypoxia, multi-organ failure, and hemodynamic disorder that results in death as in clinical practice.
The animals are supported by subcutaneous fluid administration every 8 hours and administration of buprenorphine 0.1 mg/kg and paracetamol 300 mg/kg, as is the case with septic patients in the intensive care unit (ICU). All animals are closely monitored for their clinical status based on a modified score scale known as the Lipopolysaccharide (LPS) Score Sheet.
The animals divide into 2 groups: the first group receives placebo (placebo group) and the second group receives intraperitoneally a dose of 0.3 μg T3/g of body weight, immediately after surgery (group T3). Based on guidelines for converting doses from experimental animals to equivalent doses in humans (Nair, A B and Jacob S. A simple practice guide for dose conversion between animals and humans. I Basic C/in Pharma 2016, 7: 27-31), the dose of 0.3 μg T3/g of body weight, corresponds roughly to intravenous administration of 7 μg T3/Kg body weight, i.e., from 400 to 600 μg T3 for a patient weighing 60-80 Kg. This dose is very high and beyond any T3 treatment in hypothyroid patients. The study is performed in two separate experiments. In the first experimental protocol, the clinical condition of the animals and mortality after 72 hours is examined, while in the second experimental protocol, tissue hypoxia at the cellular level after euthanasia at 18 hours is studied.
Initially, lactate levels in blood samples are measured (using L-lactate assay kit from Sigma-Aldrich, MAK329) as a general indicator of hypoxia, which is also commonly used in clinical practice in patients with sepsis. Furthermore, creatinine levels in blood are measured as an indicator of renal function (using the Mouse Creatinine Kit Cat. 80350, Crystal Chem). Finally, an echocardiographic analysis is performed in order to evaluate the end-diastolic and end-systolic volume, the ejection fraction and the pulse volume according to the Simpson rule.
Echocardiographic analysis was performed after mild anesthesia with sevoflurane (0.8%) and placing the animal in a heated blanket. Echocardiographic images were then taken along the longitudinal and transverse sternal axis with the Vivid 7 version Pro ultrasound system (GE Healthcare, Wauwatosa, Wisconsin), equipped with a 14.0-MHz probe (i13L).
Tissue hypoxia at the cellular level is determined in frozen fixed tissues in 4% paraformaldehyde based on the standard method of pimonidazole administration using the Hypoxyprobe™ Plus kit. Pimonidazole is dissolved and administered intravenously in mice at a dose of 60 mg/kg, 2 hours before euthanasia. After intracardiac infusion with paraformaldehyde, the organs are fixed, removed and dehydrated for 5 days in 30% sucrose solution. […]

sepsis = details: rat sepsis models; cited from earlier work
isolated rat heart = experiment: Isolated rat heart, prolonged 4 hour hypoxic perfusion ex vivo
Source text: as §1

p38 MAPK [4] = details: T3 40 μg/L, P<0.05, cited from earlier work
[5] = 18 hours after sepsis induction
[6] = 40 μg/L after first 30 min of hypoxic perfusion, 4 hours

## Cc1c(F)cc(C(=O)NC2CC2)cc1-c1ccc(C(=O)NCC(C)(C)C)cn1 [Losmapimod]
[1]
  myocardial protective effects: presented myocardial protective effects

## CC(C)(C)Cn1c(N)nc2ccc(-c3[nH]c(C(C)(C)C)nc3-c3ccc(F)cc3)nc21 [Ralimetinib]
[2]
  antineoplastic activity as a single agent: demonstrated antineoplastic activity

## N[C@@H](Cc1cc(I)c(Oc2ccc(O)c(I)c2)c(I)c1)C(=O)O [T3, L-triiodothyronine]
p38 MAPK [3]
  prevention of p38 MAPK activation: 3 fold
Male C57BL/6N mice; 18 hours after sepsis
  creatinine levels: did not increase
  hepatic tissue hypoxia (pimonidazole): statistically significant reduction
  renal tissue hypoxia (pimonidazole) in OSOM and ISOM: significantly reduce
Male C57BL/6N mice; [5]
  ejection fraction (echocardiography): within normal range
  pulse volume (echocardiography): within normal range
Male C57BL/6N mice; 18 hours after sepsis, 0.3 μg T3/g i.p.
  lactic acid levels in blood: decrease
Male C57BL/6N mice; 18 hours, p=0.028 vs placebo
  myocardial tissue hypoxia, pimonidazole-positive tissue of the left ventricular total tissue: 1.5%±0.5
Male C57BL/6N mice; 24 hours after sepsis, 0.3 μg T3/g i.p.
  lactic acid levels in blood: decrease
Male C57BL/6N mice; 72 hours after CLP, 0.3 μg T3/g i.p.
  animals surviving: up to 20%
Male C57BL/6N mice; after sepsis induction
  heart rate: within normal range
sepsis
  cytokine storm: reduce cytokine storm
  lung function and surfactant synthesis: maintain lung function and surfactant synthesis
  survival: improve survival
Isolated rat heart; [6]
  diastolic dysfunction: attenuated diastolic dysfunction
  left ventricular end-diastolic pressure (LVEDP): maintained LVEDP at normal values
Isolated rat heart; 40 μg/L, after 4 hours
  force of contraction (left ventricular developed pressure, LVDP): improved force of contraction
Isolated rat heart; after 4 hours hypoxic perfusion
  perfusion pressure of coronary vessels (microvascular dysfunction): lower perfusion pressure
p38 MAPK [4]; after 5 minutes of reperfusion
  phospho-p38 MAPK levels, less than control: 2.3 fold
p38 MAPK [4]; after 15 minutes of reperfusion
  phospho-p38 MAPK levels, less than control: 2.1 fold
